Assays:
[1] = test system: HCC36 cells; test: Retention of TAT-ΔNS3/4A-FITC in control cells, fluorescence microscopy; type: cell-based, Human; details: fluorescence microscope
Description: (§1) HCC36 or NS3/4A-HCC36 cells (1 × 10^5) were seeded with DMEM containing 10% serum in a 24-well plate at 37°C in a CO2 incubator overnight. The cells were incubated with 10 μM of TAT-ΔNS3/4A-FITC in the presence or absence of 2 μM telaprevir (purchased from Legend Star International, Taiwan) at 37°C for 1 h. After probe staining, the cells were washed using DMEM containing 10% serum per 20 min until the end of the experiment. After 8 h washing, the fluorescence of viable cells was observed under a fluorescence microscope at the indicated times (Axiovert 200, Carl Zeiss MicroImaging, GmbH, Germany).
Infectious HCV particles were generated as previously described ([Hayashi et al., 2014]). HCC36 cells (1 × 10^5) were seeded in DMEM containing 10% serum in a 24-well plate at 37°C in a CO2 incubator overnight. The cells were infected with JFH-1 and incubated with or without 2 μM telaprevir. After 5 days, the parental HCC36 and JFH-1-infected cells were stained with 10 μM of TAT-ΔNS3/4A-FITCat 37 °C for 1 h. […] After 8 h washing, the fluorescence of viable cells was observed under a fluorescence microscope at the indicated times (Axiovert 200, Carl Zeiss MicroImaging, GmbH, Germany).
FIGURE 2 Specific retention of TAT-ΔNS3/4A-FITC in NS3/4A-HCC36- and HCV-infected cells. […] After culturing for 1 or 8 h, the phase contrast and fluorescence of viable cells were observed under a fluorescence microscope. […]

[2] = test system: JFH-1-infected HCC36 cells; test: Retention of TAT-ΔNS3/4A-FITC in HCV-infected cells, fluorescence microscopy; type: cell-based, Human; details: fluorescence microscope
Description: Infectious HCV particles were generated as previously described ([Hayashi et al., 2014]). HCC36 cells (1 × 10^5) were seeded in DMEM containing 10% serum in a 24-well plate at 37°C in a CO2 incubator overnight. The cells were infected with JFH-1 and incubated with or without 2 μM telaprevir. After 5 days, the parental HCC36 and JFH-1-infected cells were stained with 10 μM of TAT-ΔNS3/4A-FITCat 37 °C for 1 h. After probe staining, the cells were washed using DMEM containing 10% serum per 20 min until the end of the experiment. After 8 h washing, the fluorescence of viable cells was observed under a fluorescence microscope at the indicated times (Axiovert 200, Carl Zeiss MicroImaging, GmbH, Germany).
(§2) FIGURE 2 Specific retention of TAT-ΔNS3/4A-FITC in NS3/4A-HCC36- and HCV-infected cells. HCC36 cells, NS3/4A-HCC36 cells, or JFH-1-infected HCC36 cells were incubated with 10 μM TAT-ΔNS3/4A-FITC in the absence or presence of 2 μM telaprevir (NS3/4A protease inhibitor) at 37°C for 1 h. The cells were washed with DMEM containing 10% serum three times per hour. After culturing for 1 or 8 h, the phase contrast and fluorescence of viable cells were observed under a fluorescence microscope. Scale bar: 100 μm.

[3] = test system: JFH-1-infected HCC36 cells; test: Specific retention of probe via flow cytometry; type: cell-based, Human
Description: (§3) We also used the WT probe (GRKKRRQRRR-[…]-LKKKYK-FITC) and the scrambled sequence probe (GRKKRRQRRR-[…]-LKKKYK) that could not be activated by protease as a control group to test the specific retention of probe via flow cytometry. HCC36 cells, NS3/4A-HCC36 cells, or JFH-1-infected HCC36 cells were incubated with 10 μM TAT-ΔNS3/4A-FITC or 10 μM TAT-scrambled NS3/4A-FITC in the absence or presence of 2 μM telaprevir (NS3/4A protease inhibitor) at 37 °C for 1 h. The cells were washed with DMEM containing 10% serum three times per hour. After culturing for 1 or 8 h, the fluorescence of viable cells was observed via flow cytometry.
(§4) Supplementary file Image_5.TIF: Supplementary Figure 5 To evaluate the specific retention of probe via flow cytometry, we used the WT probe (GRKKRRQRRR-[…]-LKKKYK-FITC) and the scrambled sequence probe (GRKKRRQRRR-[…]-LKKKYK) that could not be activated by protease as a control group to test the specific retention of probe via flow cytometry. HCC36 cells, NS3/4A-HCC36 cells, or JFH-1-infected HCC36 cells were incubated with 10 μM TAT-ΔNS3/4A-FITC or 10 μM TAT-scrambled NS3/4A-FITC in the absence or presence of 2 μM telaprevir (NS3/4A protease inhibitor) at 37°C for 1 h. The cells were washed with DMEM containing 10% serum three times per hour. After culturing for 1 or 8 h, the fluorescence of viable cells was observed via flow cytometry. Click here for additional data file.

[4] = test system: NS3/4A-HCC36 cells; test: Specific retention of probe via flow cytometry; type: cell-based, Human
Description: as §3, §4

[5] = test system: HCC36 cells; test: Specific retention of probe via flow cytometry; type: cell-based, Human; details: control HCC36 cells
Description: as §3, §4

[6] = test system: NS3/4A-HCC36 cells; test: Retention of TAT-ΔNS3/4A-FITC in cells, fluorescence microscopy; type: cell-based, Human; details: fluorescence microscope
Description: as §1, §2

[7] = test system: HEK293 cells; details: HEK293, 0.1–2,000 ug/ml, 72 h, cell viability by cellular ATP synthesis, compared with CPT-11
[8] = test system: NS3/4A-HCC36 and HCC36 tumors; test: Histological analysis of FITC fluorescence in tumor sections after i.v. probe; type: in vivo, BALB/c nude mice; details: i.v. 500 μM (in 100 μL), 4 h after injection, frozen sections, n = 3 mice
Description: BALB/c nude mice (n = 3) bearing established HCC36 and NS3/4A-HCC36 (100–200 mm^3) tumors in their right and left hind legs, respectively, were intravenously injected with 500 μM (in 100 μL) TAT-ΔNS3/4A-FITC and sacrificed 4 h later. Tumors were excised and embedded in OCT compound (Tissue-Tek, CA) in liquid nitrogen. The adjacent tumor sections either directly detect the FITC-fluorescent intensity to observe the accumulation of TAT-ΔNS3/4A-FITC probe or stained with a 520 HCV protease Assay Kit (AnaSpec) to visualize NS3/4A activity. The sections were examined on an upright BX4 microscope (Olympus, Melville, NY, USA) or viewed under phase contrast or fluorescence fields on an inverted Axiovert 200 microscope (Carl Zeiss Microimaging, Thornwood, NY, USA).
FIGURE 3 Specific retention of TAT-ΔNS3/4A-FITC in NS3/4A-expressing tumors in vivo. Mice bearing established NS3/4A-HCC36 and HCC36 tumors were injected with 500 μM TAT-NS3/4A-FITC and sacrificed after 4 h. Sections of NS3/4A-HCC36 (upper panels) and HCC36 (lower panels) tumors were stained with 520 HCV protease Assay Kit (AnaSpec) to detect NS3/4A activity in tumor sections. FITC-derived fluorescence (green) and NS3/4A activity (red) were observed under a fluorescence microscope. Scale bar: 1 mm.

[9] = 10 μM probe 1 h, washed every 20 min, 8 h
[10] = 10 μM probe, 37°C, 1 h staining
[11] = 10 μM probe + 2 μM telaprevir, 8 h
[12] = 10 μM probe 1 h, washed three times per hour, 8 h

In the case of “GRKKRRQRRR-DEDEDEDEMEECASH-LKKKYK-FITC [TAT-ΔNS3/4A-FITC, cell-penetrating Tat peptide, HCV NS3/4A protease substrate and hydrophilic domain (KKKYK), labeled by FITC]”, the “fluorescence retention after culturing for 8 h” value (“fluorescence retention … for 8 h” for short) [1, 9] is reported as “not in control HCC36 cells”, the “fluorescence accumulation after probe staining” value (“fluorescence accumulation” below) [1, 10] is reported as “strong fluorescence accumulated in each cell” and the “fluorescence retention … for 8 h” value [2, 9] is reported as “strong fluorescence only accumulated in NS3/4A-HCC36 cells and HCV-infected HCC36 cells”. The “fluorescence retention after 8 h in presence of NS3/4A inhibitor” value [2, 11] was “did not accumulate”, the “fluorescence accumulation” value [2, 10] was “strong fluorescence accumulated in each cell” and the “fluorescence retention … for 8 h” value [3, 12] was “strong fluorescence of WT probe only accumulated in NS3/4A-HCC36 cells and HCV-infected HCC36 cells”. The “fluorescence retention after 8 h in presence of telaprevir” value [3, 11] was “could block via the 2 μM telaprevir”, the “fluorescence after 1 h probe staining” value ([3]; 10 μM probe, 37°C, 1 h) was “strong fluorescence of WT probe accumulated in each cell” and the “fluorescence retention … for 8 h” value [4, 12] was “strong fluorescence of WT probe only accumulated in NS3/4A-HCC36 cells”. For the same substance, the “fluorescence retention after 8 h in presence of telaprevir” value [4, 11] was “could block via the 2 μM telaprevir”, the “fluorescence after 1 h probe staining” value ([4]; 10 μM probe, 37°C, 1 h) was “strong fluorescence of WT probe accumulated in each cell” and the “fluorescence retention … for 8 h” value [5, 12] was “not in control HCC36 cells”. The “fluorescence after 1 h probe staining” value ([5]; 10 μM probe, 37°C, 1 h) was “strong fluorescence of WT probe accumulated in each cell”, the “fluorescence retention … for 8 h” value ([6]; 10 μM probe 1 h, washed with DMEM 10% serum every 20 min, 8 h) was “strong fluorescence only accumulated in NS3/4A-HCC36 cells” and the “fluorescence retention after 8 h in presence of NS3/4A inhibitor” value [6, 11] was “did not accumulate”. The “fluorescence accumulation” value [6, 10] was “strong fluorescence accumulated in each cell”, the “in vitro toxicity, growth of HEK293” value [7] was “could not inhibit the growth of HEK293” and the “FITC-derived fluorescence in NS3/4A-HCC36 tumor sections” value [8] was “accumulated in the NS3/4A-HCC3 tumors”.

— paper PMC9672079, “Micro-PET imaging of hepatitis C virus NS3/4A protease activity using a protease-activatable retention probe” (Frontiers in Microbiology, 2022)
